Legend:
[1] = Metabolism of sepin-1 in HLM, MLM and RLM (metabolite profiling, UHPLC-QTOFMS); assay type: in vitro ADME, human, mouse, rat; settings: 30 min; for Source (liver microsomes in which the metabolite was found): 30 μM sepin-1, 1.0 mg microsomes, NADPH 1.0 mM, 37°C; for Relative abundance of metabolite across HLM, MLM and RLM (in words): 30 μM sepin-1, NADPH 1.0 mM
Protocol: (§1) Incubations were conducted in 1× phosphate-buffered saline (1× PBS, pH 7.4), containing 30 μM sepin-1, 1.0 mg HLM, MLM, RLM, or 2 pmol of each cDNA-expressed P450 enzyme (control, CYP1A2, 2A6, 2B6, 2C8, 2C9, 2C19, 2D6, 2E1, and CYP3A4) in a final volume of 190 μl. After 5 min of pre-incubation at 37°C, the reaction was initiated by adding 10 μl of 20 mM NADPH (final concentration 1.0 mM) and continued for 30 min, with shaking at 37°C. Incubations lacking NADPH served as controls. Reactions were terminated with 200 μl of ice-cold methanol, followed by vortexing for 30 s and centrifuging at 15,000 × g for 15 min. Each supernatant was transferred to an auto sampler vial, and 5.0 μl was injected on to UHPLC coupled with a QTOFMS system for metabolite analysis. Incubations were conducted in quadruplicate for HLM, in triplicate for MLM and RLM, and in duplicate for cDNA-expressed P450 enzymes.
(§2) The separation of sepin-1 and its metabolites was achieved using a 1260 Infinity Binary LC System (Agilent Technologies, Santa Clara, CA, United States) equipped with 100 mm × 2.1 mm (Agilent XDB C18) column. The column temperature was maintained at 40°C. The flow rate was 0.3 ml/min, with a gradient ranging from 2% to 98% aqueous acetonitrile containing 0.1% formic acid in a 15-min run. QTOFMS was operated in a positive mode with electrospray ionization. Ultra-high pure nitrogen was applied as the drying gas (12 l/min) and the collision gas. The drying gas temperature was set at 325°C, and the nebulizer pressure was kept at 35 psi. The capillary voltages were set at 3.5 kV. During MS, real-time mass correction and accurate mass were achieved by continuously measuring standard reference ions at m/z 121.0508 and 922.0098 in the positive mode. The MS/MS of sepin-1 metabolites was performed in a targeted mode with a default isolation width of m/z 4 and collision energy ramp ranging from 10 to 45 V.
Mass chromatograms and mass spectra were acquired by MassHunter Workstation Data Acquisition Software (Agilent, Santa Clara, CA, United States) in centroid and profile formats from m/z 100 to 1000. The acquisition rate was set as 1.5 spectra per second. Centroid and integrated mass chromatographic data were processed by Mass Profinder and Mass Profiler Professional Software (Agilent, Santa Clara, CA, United States) to generate a multivariate data matrix. The corresponding data matrices were then exported into SIMCA13 (Umetrics, Kinnelon, NJ, United States) for multivariate data analysis. OPLS-DA was conducted on Pareto-scaled data. For the QQQMS data, QQQ Quantitative Analysis Software (Agilent, Santa Clara, CA, United States) was used for metabolite analysis. […] Statistical differences between two groups were determined by Student’s t-test.

[2] = Metabolism of sepin-1 in human liver microsomes; assay type: in vitro ADME; settings: HLM, 30 μM sepin-1, with or without NADPH 1.0 mM
Protocol: as §1
as §2, with “During MS, real-time mass correction and accurate mass were achieved by continuously measuring standard reference ions at m/z 121.0508 and 922.0098 in the positive mode. The MS/MS of sepin-1 metabolites was performed in a targeted mode with a default isolation width of m/z 4 and collision energy ramp ranging from 10 to 45 V.” left out
Mass chromatograms and mass spectra were acquired by MassHunter Workstation Data Acquisition Software (Agilent, Santa Clara, CA, United States) in centroid and profile formats from m/z 100 to 1000. […] For the QQQMS data, QQQ Quantitative Analysis Software (Agilent, Santa Clara, CA, United States) was used for metabolite analysis. […] Statistical differences between two groups were determined by Student’s t-test.

[3] = Sepin-1 metabolism with cDNA-expressed P450 control; assay type: in vitro ADME, human; settings: 30 μM sepin-1, control enzyme preparation, NADPH 1.0 mM, 30 min; unit not given, highest enzyme per metabolite = 100.0
Protocol: as §1
(§3) The separation of sepin-1 and its metabolites was achieved using a 1260 Infinity Binary LC System (Agilent Technologies, Santa Clara, CA, United States) equipped with 100 mm × 2.1 mm (Agilent XDB C18) column. The column temperature was maintained at 40°C. The flow rate was 0.3 ml/min, with a gradient ranging from 2% to 98% aqueous acetonitrile containing 0.1% formic acid in a 15-min run. QTOFMS was operated in a positive mode with electrospray ionization. […]

CYP1A2 = molecular target: T1, CYP1A2 (Homo sapiens, UniProt P05177); assay: Sepin-1 metabolism by recombinant CYP1A2; assay type: in vitro ADME; settings: 30 μM sepin-1, 2 pmol cDNA-expressed enzyme, NADPH 1.0 mM, 30 min; unit not given, highest enzyme per metabolite = 100.0
T1 construct: purchased XenoTech
T1 sequence (P05177 1-516): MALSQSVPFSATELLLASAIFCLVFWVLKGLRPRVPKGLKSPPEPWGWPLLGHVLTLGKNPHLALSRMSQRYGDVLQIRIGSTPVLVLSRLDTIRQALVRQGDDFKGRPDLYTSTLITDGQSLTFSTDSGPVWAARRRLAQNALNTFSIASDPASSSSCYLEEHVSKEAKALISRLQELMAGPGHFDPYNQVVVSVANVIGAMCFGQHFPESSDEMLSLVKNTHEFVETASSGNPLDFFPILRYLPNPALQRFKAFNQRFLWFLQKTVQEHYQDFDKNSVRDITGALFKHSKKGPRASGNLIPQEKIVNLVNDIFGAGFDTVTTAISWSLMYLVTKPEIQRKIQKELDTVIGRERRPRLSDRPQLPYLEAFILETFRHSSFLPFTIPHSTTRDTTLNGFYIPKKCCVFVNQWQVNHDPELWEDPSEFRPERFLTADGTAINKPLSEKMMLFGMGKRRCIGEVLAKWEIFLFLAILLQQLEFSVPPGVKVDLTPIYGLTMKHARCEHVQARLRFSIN
Protocol: as §1, §3

CYP2A6 = test system: T2, CYP2A6; assay: Sepin-1 metabolism by recombinant CYP2A6; assay type: in vitro ADME, human; settings: 30 μM sepin-1, 2 pmol cDNA-expressed enzyme, NADPH 1.0 mM, 30 min; unit not given, highest enzyme per metabolite = 100.0
T2 construct: purchased XenoTech
Protocol: as §1, §3

CYP2B6 = molecular target: T3, CYP2B6 (Homo sapiens, UniProt P20813); assay: Sepin-1 metabolism by recombinant CYP2B6; assay type: in vitro ADME; settings: 30 μM sepin-1, 2 pmol cDNA-expressed enzyme, NADPH 1.0 mM, 30 min; unit not given, highest enzyme per metabolite = 100.0
T3 construct: purchased XenoTech
T3 sequence (P20813 1-491): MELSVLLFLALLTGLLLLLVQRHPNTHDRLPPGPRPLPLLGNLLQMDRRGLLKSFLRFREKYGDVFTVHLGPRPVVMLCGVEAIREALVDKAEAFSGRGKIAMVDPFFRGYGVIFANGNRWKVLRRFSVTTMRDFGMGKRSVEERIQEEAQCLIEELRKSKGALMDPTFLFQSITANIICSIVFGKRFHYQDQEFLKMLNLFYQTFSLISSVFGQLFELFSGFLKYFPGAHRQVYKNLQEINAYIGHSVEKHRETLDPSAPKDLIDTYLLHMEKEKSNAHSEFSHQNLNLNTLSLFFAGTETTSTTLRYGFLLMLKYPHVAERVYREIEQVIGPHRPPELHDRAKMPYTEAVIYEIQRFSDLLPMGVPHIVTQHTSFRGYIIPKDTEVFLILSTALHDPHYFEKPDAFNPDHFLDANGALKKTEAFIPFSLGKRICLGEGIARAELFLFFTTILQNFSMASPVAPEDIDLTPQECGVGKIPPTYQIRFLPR
Protocol: as §1, §3

CYP2C8 = molecular target: T4, CYP2C8 (Homo sapiens, UniProt P10632); assay: Sepin-1 metabolism by recombinant CYP2C8; assay type: in vitro ADME; settings: 30 μM sepin-1, 2 pmol cDNA-expressed enzyme, NADPH 1.0 mM, 30 min; unit not given, highest enzyme per metabolite = 100.0
T4 construct: purchased XenoTech
T4 sequence (P10632 1-490): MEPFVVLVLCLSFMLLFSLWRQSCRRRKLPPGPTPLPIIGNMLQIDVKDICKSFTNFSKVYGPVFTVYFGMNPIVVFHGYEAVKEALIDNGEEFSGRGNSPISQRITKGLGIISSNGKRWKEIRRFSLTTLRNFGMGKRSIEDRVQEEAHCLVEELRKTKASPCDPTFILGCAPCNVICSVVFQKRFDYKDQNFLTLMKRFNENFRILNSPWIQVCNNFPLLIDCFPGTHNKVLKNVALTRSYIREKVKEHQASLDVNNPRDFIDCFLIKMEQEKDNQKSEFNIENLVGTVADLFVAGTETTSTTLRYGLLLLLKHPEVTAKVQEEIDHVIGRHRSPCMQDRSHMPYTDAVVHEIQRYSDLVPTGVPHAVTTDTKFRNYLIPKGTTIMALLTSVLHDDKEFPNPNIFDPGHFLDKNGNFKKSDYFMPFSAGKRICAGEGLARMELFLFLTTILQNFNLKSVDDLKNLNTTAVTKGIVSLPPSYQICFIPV
Protocol: as §1, §3

CYP2C9 = molecular target: T5, CYP2C9 (Homo sapiens, UniProt P11712); assay: Sepin-1 metabolism by recombinant CYP2C9; assay type: in vitro ADME; settings: 30 μM sepin-1, 2 pmol cDNA-expressed enzyme, NADPH 1.0 mM, 30 min; unit not given, highest enzyme per metabolite = 100.0
T5 construct: purchased XenoTech
T5 sequence (P11712 whole entry): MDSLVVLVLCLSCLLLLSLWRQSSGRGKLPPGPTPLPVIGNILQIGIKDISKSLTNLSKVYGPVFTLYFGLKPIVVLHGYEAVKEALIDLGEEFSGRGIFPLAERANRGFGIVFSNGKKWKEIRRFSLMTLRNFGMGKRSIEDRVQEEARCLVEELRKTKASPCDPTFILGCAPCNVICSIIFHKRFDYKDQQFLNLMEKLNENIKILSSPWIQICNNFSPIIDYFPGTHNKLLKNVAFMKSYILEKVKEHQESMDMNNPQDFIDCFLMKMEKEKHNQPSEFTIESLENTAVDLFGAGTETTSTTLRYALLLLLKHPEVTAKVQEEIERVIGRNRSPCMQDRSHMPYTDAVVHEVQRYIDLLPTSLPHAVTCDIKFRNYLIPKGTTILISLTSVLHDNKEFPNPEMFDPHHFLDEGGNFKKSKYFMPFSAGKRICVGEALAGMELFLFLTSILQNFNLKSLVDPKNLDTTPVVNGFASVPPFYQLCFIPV
Protocol: as §1, §3

CYP2C19 = molecular target: T6, CYP2C19 (Homo sapiens, UniProt P33261); assay: Sepin-1 metabolism by recombinant CYP2C19; assay type: in vitro ADME; settings: 30 μM sepin-1, 2 pmol cDNA-expressed enzyme, NADPH 1.0 mM, 30 min; unit not given, highest enzyme per metabolite = 100.0
T6 construct: purchased XenoTech
T6 sequence (P33261 whole entry): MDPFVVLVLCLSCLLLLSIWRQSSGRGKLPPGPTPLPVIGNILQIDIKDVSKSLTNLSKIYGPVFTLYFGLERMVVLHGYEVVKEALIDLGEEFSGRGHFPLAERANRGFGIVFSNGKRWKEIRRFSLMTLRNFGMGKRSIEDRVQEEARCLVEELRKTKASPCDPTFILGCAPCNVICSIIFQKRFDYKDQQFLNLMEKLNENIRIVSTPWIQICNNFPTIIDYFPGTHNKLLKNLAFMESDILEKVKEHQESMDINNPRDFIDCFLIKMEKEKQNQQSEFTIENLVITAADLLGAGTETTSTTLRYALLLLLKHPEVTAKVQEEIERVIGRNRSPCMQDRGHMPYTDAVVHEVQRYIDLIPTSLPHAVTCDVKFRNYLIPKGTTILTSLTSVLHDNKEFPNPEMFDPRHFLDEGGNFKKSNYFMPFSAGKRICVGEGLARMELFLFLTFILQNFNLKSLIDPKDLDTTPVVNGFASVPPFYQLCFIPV
Protocol: as §1, §3

CYP2D6 = molecular target: T7, CYP2D6 (Homo sapiens, UniProt P10635); assay: Sepin-1 metabolism by recombinant CYP2D6; assay type: in vitro ADME; settings: 30 μM sepin-1, 2 pmol cDNA-expressed enzyme, NADPH 1.0 mM, 30 min; unit not given, highest enzyme per metabolite = 100.0
T7 construct: purchased XenoTech
T7 sequence (P10635 whole entry): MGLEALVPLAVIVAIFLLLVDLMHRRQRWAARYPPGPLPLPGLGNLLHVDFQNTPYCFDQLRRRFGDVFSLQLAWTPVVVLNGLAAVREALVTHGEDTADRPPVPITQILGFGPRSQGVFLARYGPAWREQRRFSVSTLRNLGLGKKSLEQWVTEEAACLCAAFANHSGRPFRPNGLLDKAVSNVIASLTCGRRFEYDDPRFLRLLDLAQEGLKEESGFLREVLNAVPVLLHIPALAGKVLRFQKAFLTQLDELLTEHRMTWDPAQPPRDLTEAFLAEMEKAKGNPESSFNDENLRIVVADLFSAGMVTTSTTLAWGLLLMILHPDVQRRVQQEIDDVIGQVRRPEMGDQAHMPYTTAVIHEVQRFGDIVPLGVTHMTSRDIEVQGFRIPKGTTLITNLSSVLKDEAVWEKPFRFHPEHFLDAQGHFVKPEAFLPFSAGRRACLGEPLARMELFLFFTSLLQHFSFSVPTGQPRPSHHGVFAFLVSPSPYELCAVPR
Protocol: as §1, §3

CYP2E1 = test system: T8, CYP2E1; assay: Sepin-1 metabolism by recombinant CYP2E1; assay type: in vitro ADME, human; settings: 30 μM sepin-1, 2 pmol cDNA-expressed enzyme, NADPH 1.0 mM, 30 min; unit not given, highest enzyme per metabolite = 100.0
T8 construct: purchased XenoTech
Protocol: as §1, §3

CYP3A4 = molecular target: T9, CYP3A4 (Homo sapiens, UniProt P08684); assay: Sepin-1 metabolism by recombinant CYP3A4; assay type: in vitro ADME; settings: 30 μM sepin-1, 2 pmol cDNA-expressed enzyme, NADPH 1.0 mM, 30 min; unit not given, highest enzyme per metabolite = 100.0
T9 construct: purchased XenoTech
T9 sequence (P08684 whole entry): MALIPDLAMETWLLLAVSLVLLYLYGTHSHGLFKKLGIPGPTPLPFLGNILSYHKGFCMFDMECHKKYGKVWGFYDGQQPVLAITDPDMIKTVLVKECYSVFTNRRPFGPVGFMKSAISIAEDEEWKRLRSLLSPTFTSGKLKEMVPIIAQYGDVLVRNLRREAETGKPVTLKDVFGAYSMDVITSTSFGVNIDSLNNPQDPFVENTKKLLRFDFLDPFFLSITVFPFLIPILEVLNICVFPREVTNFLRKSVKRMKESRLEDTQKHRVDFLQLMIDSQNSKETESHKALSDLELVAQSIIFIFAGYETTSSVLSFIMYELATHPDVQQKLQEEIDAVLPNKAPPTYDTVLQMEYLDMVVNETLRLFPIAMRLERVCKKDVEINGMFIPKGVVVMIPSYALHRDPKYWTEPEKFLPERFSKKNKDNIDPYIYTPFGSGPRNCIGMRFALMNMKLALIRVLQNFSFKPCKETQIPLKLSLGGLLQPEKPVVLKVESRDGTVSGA
Protocol: as §1, §3

| NADPH dependence of metabolite formation [2] | Formation of metabolite, Control (Role of P450s in the metabolism of sepin-1) [3] | Formation of metabolite by CYP1A2 (Role of P450s in the metabolism of sepin-1) (CYP1A2) | Formation of metabolite by CYP2A6 (Role of P450s in the metabolism of sepin-1) (CYP2A6) | Formation of metabolite by CYP2B6 (Role of P450s in the metabolism of sepin-1) (CYP2B6) | Formation of metabolite by CYP2C8 (Role of P450s in the metabolism of sepin-1) (CYP2C8) | Formation of metabolite by CYP2C9 (Role of P450s in the metabolism of sepin-1) (CYP2C9) | Formation of metabolite by CYP2C19 (Role of P450s in the metabolism of sepin-1) (CYP2C19) | Formation of metabolite by CYP2D6 (Role of P450s in the metabolism of sepin-1) (CYP2D6) | Formation of metabolite by CYP2E1 (Role of P450s in the metabolism of sepin-1) (CYP2E1) | Formation of metabolite by CYP3A4 (Role of P450s in the metabolism of sepin-1) (CYP3A4) | Structure (SMILES) | Source (liver microsomes in which the metabolite was found) [1] | Relative abundance of metabolite across HLM, MLM and RLM (in words) [1] |
| --- | --- | --- | --- | --- | --- | --- | --- | --- | --- | --- | --- | --- | --- |
| NADPH dependent | 41.5 | 50.5 | 76.1 | 85.9 | 63.6 | 57.2 | 67.5 | 100.0 | 53.2 | 95.3 | CC1(C)[N+]([O-])=c2ccc(N)cc2=[N+]1[O-] [M2] | HLM, MLM, RLM | dominant metabolites in all the three species |
| NADPH dependent | 79.5 | 86.3 | 90.8 | 91.9 | 91.3 | 90.4 | 90.8 | 96.9 | 89.9 | 100.0 | CC1(C)Nc2ccc([N+](=O)[O-])cc2N1 [M1] | HLM, MLM, RLM | dominant metabolites in all the three species |
